From PubChem BioAssay AID588607 (Sanford-Burnham Center for Chemical Genomics, 2011) come the findings set out here.

The structures appear in SMILES notation. Calls of active or inactive are those of the source.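 Rule for the calls: active = mean EC50 below 100 µM; inactive = the rest.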 A value given as a limit tells only on which side of the number the result lay.

The target of the test is placental alkaline phosphatase (human). Description: placental alkaline phosphatase activators or inhibitors – biochemical, human PLAP, set 2, selectivity assay for mouse IAP activator project, SAR follow-up (AID 588607). The note with it: purified PLAP, CDP-Star luminescence, 30 min.
Take `CN(C)S(=O)(=O)c1ccc(NC(=S)NCCN2CCCC2)cc1`: the EC50 is > 100 µM (inactive). Consider `Cc1ccc(S(=O)(=O)N(C)C)cc1NC(=S)NC(C)CCCC(C)C` (stereo unspecified), for which the IC50 (inhibition of PLAP activity) was 66.1 µM. In the case of `COc1ccccc1CNC(=S)Nc1ccc(S(=O)(=O)N(C)C)cc1`, the IC50 (inhibition of PLAP activity) is 69.6 µM. For the compound `CN(C)S(=O)(=O)c1cccc(NC(=S)NCCN2CCCC2)c1`, the EC50 was > 100 µM (inactive). In the case of `Cc1ccc(CNC(=S)Nc2cccc(S(=O)(=O)N(C)C)c2)cc1`, the IC50 (inhibition of PLAP activity) was 82.8 µM. `CN(C)S(=O)(=O)c1cccc(NC(=S)NCCCn2ccnc2)c1`: the EC50 was > 100 µM (inactive). On to `COc1cccc(CCNC(=S)Nc2cccc(S(=O)(=O)N(C)C)c2)c1`, for which the IC50 (inhibition of PLAP activity) was 78.6 µM. The same measure, in the same setting: the result for `CN(C)S(=O)(=O)c1cccc(NC(=S)NCCC(c2ccccc2)c2ccccc2)c1` reads 93 µM. As for `CN(CCc1ccccc1)C(=S)Nc1cccc(S(=O)(=O)N(C)C)c1`, the EC50 was > 100 µM (inactive).

For `O=C(CCc1ccccc1)NC(=S)Nc1cccc(S(=O)(=O)N2CCCC2)c1`, the EC50 was > 100 µM (inactive). `CN(C)S(=O)(=O)c1cccc(NC(=S)NCCc2ccc(F)cc2)c1`: the EC50 is > 100 µM (inactive). With `O=S(=O)(c1ccc(NC(=S)NCc2cccc(F)c2)cc1)N1CCCCC1`, the IC50 (inhibition of PLAP activity) was 78.1 µM.

In the case of `CN(C)S(=O)(=O)c1ccc(NC(=S)NC(c2ccccc2)c2ccccc2)cc1`, the IC50 (inhibition of PLAP activity) was 29 µM. Take `CN(C)CCCNC(=S)Nc1cccc(S(=O)(=O)N(C)C)c1`: the EC50 was > 100 µM (inactive). In the case of `CN(C)S(=O)(=O)c1cccc(NC(=S)NCCC(=O)N2CCCC2)c1`, the EC50 is > 100 µM (inactive). Still for that read-out and setting: the result for `CCN(CC)c1ccc(C(=O)NC(=S)Nc2cc(S(=O)(=O)N3CCOCC3)ccc2-n2cncn2)cc1` reads > 100 µM (inactive).

Regarding `O=S(=O)(c1ccc(NC(=S)NCC(c2ccccc2)c2ccccc2)cc1)N1CCCC1`, the IC50 (inhibition of PLAP activity) is 19.5 µM. Same read-out and setting: under `O=S(=O)(c1ccc(NC(=S)NCCC(c2ccccc2)c2ccccc2)cc1)N1CCCCC1` stands 38.6 µM.

`O=S(=O)(c1ccc(NC(=S)NC(c2ccccc2)c2ccccc2)cc1)N1CCCCC1`: the IC50 (inhibition of PLAP activity) was 16.6 µM.

Consider `COc1ccc(CNC(=S)Nc2ccc(S(=O)(=O)N3CCCCC3)cc2)cc1OC`, for which the IC50 (inhibition of PLAP activity) is 68.6 µM. Regarding `CN(C)S(=O)(=O)c1cccc(NC(=S)NCCc2cccc(F)c2)c1`, the EC50 is > 100 µM (inactive). On to `Cc1ccc(S(=O)(=O)N(C)C)cc1NC(=S)NC(C)CCC(C)C` (stereo unspecified), for which the IC50 (inhibition of PLAP activity) was 78.5 µM.

Consider `CN(C)S(=O)(=O)c1cccc(NC(=S)NCCc2cccc(O)c2)c1`, for which the EC50 is > 100 µM (inactive). With `COc1cccc(CNC(=S)Nc2ccc(S(=O)(=O)N(C)C)cc2)c1`, the IC50 (inhibition of PLAP activity) is 91 µM. The same measure, in the same setting: under `Cc1ccc(CNC(=S)Nc2ccc(S(=O)(=O)N(C)C)cc2)cc1` stands 78.6 µM. For `CN(C)S(=O)(=O)c1ccc(NC(=S)NCCc2cccc(O)c2)cc1`, the EC50 is > 100 µM (inactive).

Consider `CCOc1cc(CCNC(=S)Nc2ccc(S(=O)(=O)N(C)C)cc2)ccc1OC`, for which the IC50 (inhibition of PLAP activity) is 89.9 µM.

Turning to `O=C(NC(=S)Nc1cc(S(=O)(=O)N2CCOCC2)ccc1O)c1ccco1`, the IC50 (inhibition of PLAP activity) is 43.6 µM. Same read-out and setting: under `Cc1ccccc1CNC(=S)Nc1ccc(S(=O)(=O)N(C)C)cc1` stands 71.8 µM; under `CC1CCN(S(=O)(=O)c2ccc(NC(=S)NCCC(c3ccccc3)c3ccccc3)cc2)CC1`, 31.9 µM. Take `CN(C)S(=O)(=O)c1ccc(NC(=S)NCCC(c2ccccc2)c2ccccc2)cc1`: the IC50 (inhibition of PLAP activity) was 35 µM.

As to `CC(CCc1ccccc1)NC(=S)Nc1cccc(S(=O)(=O)N(C)C)c1` (stereo unspecified), the IC50 (inhibition of PLAP activity) was 69.2 µM. Take `COc1ccc(CCNC(=S)Nc2ccc(S(=O)(=O)N3CCCCC3)cc2)cc1OC`: the IC50 (inhibition of PLAP activity) is 81.9 µM. As for `Cc1ccc(S(=O)(=O)N(C)C)cc1NC(=S)NC(=O)C12CC3CC(CC(C3)C1)C2`, the EC50 was > 100 µM (inactive). Still for that read-out and setting: the result for `CN(C)S(=O)(=O)c1ccc(NC(=S)NCc2ccc(Cl)cc2)cc1` reads > 100 µM (inactive). `CCN(CC)S(=O)(=O)c1ccc(NC(=S)NC(c2ccccc2)c2ccccc2)cc1`: the IC50 (inhibition of PLAP activity) is 26.3 µM. `CC1CC(NC(=S)Nc2cccc(S(=O)(=O)N(C)C)c2)CC(C)N1` (stereo unspecified): the EC50 is > 100 µM (inactive). The same measure, in the same setting: the result for `Cc1ccc(S(=O)(=O)N(C)C)cc1NC(=S)NCCCn1ccnc1` reads > 100 µM (inactive).

As for `CN(C)S(=O)(=O)c1ccc(NC(=S)NCC(c2ccccc2)c2ccccc2)cc1`, the IC50 (inhibition of PLAP activity) was 40.8 µM. Still for that read-out and setting: the result for `O=S(=O)(c1ccc(NC(=S)NC(c2ccccc2)c2ccccc2)cc1)N1CCCC1` reads 22.1 µM. On to `Cc1ccc(C)c(NC(=S)Nc2ccc(S(=O)(=O)N3CCCCC3)cc2)c1`, for which the EC50 is > 100 µM (inactive). Same read-out and setting: under `CN(C)S(=O)(=O)c1cccc(NC(=S)NCc2ccc(Cl)cc2)c1` stands > 100 µM (inactive). On to `CN(C)S(=O)(=O)c1cccc(NC(=S)NC(c2ccccc2)c2ccccc2)c1`, for which the IC50 (inhibition of PLAP activity) was 31.2 µM. For the compound `COc1ccc(CCNC(=S)Nc2ccc(S(=O)(=O)N3CCCCC3)cc2)cc1`, the IC50 (inhibition of PLAP activity) was 70.8 µM.

With `CCN(CC)CCCNC(=S)Nc1cccc(S(=O)(=O)N(C)C)c1`, the EC50 was > 100 µM (inactive). Still for that read-out and setting: under `CCCCCCC(C)NC(=S)Nc1cc(S(=O)(=O)N(C)C)ccc1C` (stereo unspecified) stands > 100 µM (inactive); under `O=C(NC(=S)Nc1cc(S(=O)(=O)N2CCOCC2)ccc1N1CCOCC1)c1ccco1`, > 100 µM (inactive); under `Cc1ccc(S(=O)(=O)N(C)C)cc1NC(=S)NC1CCN(Cc2ccccc2)CC1`, > 100 µM (inactive). For `O=S(=O)(c1ccc(NC(=S)NCC(c2ccccc2)c2ccccc2)cc1)N1CCCCC1`, the IC50 (inhibition of PLAP activity) is 29.6 µM. As for `CN(C)S(=O)(=O)c1ccc(NC(=S)NCCc2ccccc2)cc1`, the EC50 is > 100 µM (inactive). Regarding `CN(C)S(=O)(=O)c1ccc(NC(=S)NCCc2cccc(Br)c2)cc1`, the IC50 (inhibition of PLAP activity) was 57 µM. The same measure, in the same setting: the result for `CN(C)S(=O)(=O)c1cccc(NC(=S)NCCc2ccc(Br)cc2)c1` reads 92 µM; that for `O=S(=O)(c1ccc(NC(=S)NCc2cccc(Cl)c2)cc1)N1CCCCC1`, 84.9 µM; that for `CC1CCN(S(=O)(=O)c2ccc(NC(=S)NC(c3ccccc3)c3ccccc3)cc2)CC1`, 47.2 µM.

Take `CN(CCc1ccccn1)C(=S)Nc1cccc(S(=O)(=O)N(C)C)c1`: the EC50 is > 100 µM (inactive).

As to `CN(C)CC(C)(C)CNC(=S)Nc1cccc(S(=O)(=O)N(C)C)c1`, the EC50 is > 100 µM (inactive). Still for that read-out and setting: under `CC(CNC(=S)Nc1cccc(S(=O)(=O)N(C)C)c1)N1CCN(c2ccccc2)CC1` (stereo unspecified) stands > 100 µM (inactive); under `CN(C)S(=O)(=O)c1cccc(NC(=S)NCCCN2CCCC2=O)c1`, > 100 µM (inactive).

As for `O=S(=O)(c1ccc(NC(=S)NCCC(c2ccccc2)c2ccccc2)cc1)N1CCCC1`, the IC50 (inhibition of PLAP activity) is 42 µM.

On to `CN(C)S(=O)(=O)c1cccc(NC(=S)NCCc2ccccc2)c1`, for which the IC50 (inhibition of PLAP activity) was 86.6 µM.

As to `CN(C)S(=O)(=O)c1cccc(NC(=S)NCC(c2ccccc2)c2ccccc2)c1`, the IC50 (inhibition of PLAP activity) is 35.9 µM. Still for that read-out and setting: the result for `CCN(CC)S(=O)(=O)c1ccc(NC(=S)NCC(c2ccccc2)c2ccccc2)cc1` reads 30.1 µM; that for `CN(C)S(=O)(=O)c1cccc(NC(=S)NC(C)(C)CC(C)(C)C)c1`, 85.7 µM. On to `CN(C)S(=O)(=O)c1cccc(NC(=S)NCCc2cccc(Br)c2)c1`, for which the IC50 (inhibition of PLAP activity) is 73 µM. Consider `CCN(CC)S(=O)(=O)c1ccc(NC(=S)NCCC(c2ccccc2)c2ccccc2)cc1`, for which the IC50 (inhibition of PLAP activity) was 52.5 µM. Regarding `O=c1c2ccccc2[nH]c(=S)n1-c1cccc(S(=O)(=O)N2CCCC2)c1`, the EC50 was > 100 µM (inactive).

Usually EC50 stands for the concentration giving half of the maximal effect.
